Test results taken from publication PMC7401273, “Unexpected Enhancement of HDACs Inhibition by MeS Substitution at C-2 Position of Fluoro Largazole” (Marine Drugs, 2020).
Like-named read-outs stand apart in the source and are kept apart here.

Key:
recombinant human HDAC1 [1] = target: T1, recombinant human HDAC1 (Homo sapiens, UniProt Q13547); design: method as in PMID 31163697; conditions: previously reported data, cited from earlier work; for Selectivity (HDAC1/6): selectivity of HDAC1 over HDAC6
T1 construct: purchased BPS Biosciences
T1 sequence (Q13547 whole entry): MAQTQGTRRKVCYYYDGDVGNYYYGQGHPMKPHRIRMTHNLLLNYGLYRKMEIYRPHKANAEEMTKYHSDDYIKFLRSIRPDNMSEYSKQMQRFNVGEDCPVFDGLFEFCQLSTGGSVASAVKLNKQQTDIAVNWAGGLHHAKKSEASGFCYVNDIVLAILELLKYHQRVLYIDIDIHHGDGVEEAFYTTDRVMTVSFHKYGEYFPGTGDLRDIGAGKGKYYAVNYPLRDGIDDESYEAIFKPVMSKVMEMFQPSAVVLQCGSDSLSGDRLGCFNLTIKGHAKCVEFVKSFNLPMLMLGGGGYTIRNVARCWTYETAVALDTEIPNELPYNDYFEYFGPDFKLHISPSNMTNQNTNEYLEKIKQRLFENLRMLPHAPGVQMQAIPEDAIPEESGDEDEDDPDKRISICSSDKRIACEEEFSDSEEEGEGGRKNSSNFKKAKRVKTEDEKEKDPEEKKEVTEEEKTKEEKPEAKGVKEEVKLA

recombinant human HDAC2 [2] = target: T2, recombinant human HDAC2 (Homo sapiens, UniProt Q92769); design: method as in PMID 31163697; conditions: previously reported data; cited from earlier work
T2 construct: purchased BPS Biosciences
T2 sequence (Q92769 whole entry): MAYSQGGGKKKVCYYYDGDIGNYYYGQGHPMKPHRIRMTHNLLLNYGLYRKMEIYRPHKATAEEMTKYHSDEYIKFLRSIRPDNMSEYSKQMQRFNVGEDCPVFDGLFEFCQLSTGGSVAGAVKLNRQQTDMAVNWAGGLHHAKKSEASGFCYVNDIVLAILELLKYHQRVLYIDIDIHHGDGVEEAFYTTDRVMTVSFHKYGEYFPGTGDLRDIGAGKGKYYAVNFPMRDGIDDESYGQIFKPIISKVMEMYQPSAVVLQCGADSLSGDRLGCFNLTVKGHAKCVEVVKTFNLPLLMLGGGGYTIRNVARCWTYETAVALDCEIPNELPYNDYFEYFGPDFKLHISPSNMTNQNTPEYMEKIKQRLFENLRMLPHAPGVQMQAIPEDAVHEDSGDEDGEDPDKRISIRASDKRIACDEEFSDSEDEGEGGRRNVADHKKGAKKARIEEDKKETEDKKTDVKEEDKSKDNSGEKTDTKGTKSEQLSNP

recombinant human HDAC3 [3] = target: T3, recombinant human HDAC3 (Homo sapiens, UniProt O15379); design: method as in PMID 31163697; conditions: previously reported data; cited from earlier work
T3 construct: purchased BPS Biosciences
T3 sequence (O15379 whole entry): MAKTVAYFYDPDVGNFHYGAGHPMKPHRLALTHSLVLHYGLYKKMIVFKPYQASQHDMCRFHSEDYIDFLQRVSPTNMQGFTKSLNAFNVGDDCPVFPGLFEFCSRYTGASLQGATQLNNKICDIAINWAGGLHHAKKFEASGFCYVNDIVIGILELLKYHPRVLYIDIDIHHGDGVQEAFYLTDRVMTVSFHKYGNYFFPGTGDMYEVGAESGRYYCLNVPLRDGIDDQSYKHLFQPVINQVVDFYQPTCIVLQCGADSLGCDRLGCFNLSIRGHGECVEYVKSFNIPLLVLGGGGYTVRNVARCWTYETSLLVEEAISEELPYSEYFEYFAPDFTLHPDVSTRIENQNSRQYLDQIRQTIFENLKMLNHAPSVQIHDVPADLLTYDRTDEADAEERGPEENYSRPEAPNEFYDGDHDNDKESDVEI
T3 sequence (Q9Y618 395-489 partner limits assumed): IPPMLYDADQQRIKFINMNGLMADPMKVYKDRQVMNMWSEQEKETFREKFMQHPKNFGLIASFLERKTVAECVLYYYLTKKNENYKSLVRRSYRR

recombinant human HDAC8 [4] = target: T4, recombinant human HDAC8 (Homo sapiens, UniProt Q9BY41); design: method as in PMID 31163697; conditions: previously reported data; cited from earlier work
T4 construct: purchased BPS Biosciences
T4 sequence (Q9BY41 1-377): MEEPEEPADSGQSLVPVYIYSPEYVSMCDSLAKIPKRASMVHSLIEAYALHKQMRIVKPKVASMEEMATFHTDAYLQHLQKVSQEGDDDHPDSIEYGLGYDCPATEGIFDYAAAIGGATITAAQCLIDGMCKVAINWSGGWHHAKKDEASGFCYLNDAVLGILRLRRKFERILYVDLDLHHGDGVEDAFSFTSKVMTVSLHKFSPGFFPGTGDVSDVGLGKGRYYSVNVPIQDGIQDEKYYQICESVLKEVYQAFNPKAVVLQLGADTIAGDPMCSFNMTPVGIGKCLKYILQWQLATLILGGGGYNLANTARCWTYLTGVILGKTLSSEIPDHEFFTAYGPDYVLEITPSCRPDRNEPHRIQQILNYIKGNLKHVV

recombinant human HDAC6 [5] = target: T5, recombinant human HDAC6 (Homo sapiens, UniProt Q9UBN7); design: method as in PMID 31163697; conditions: previously reported data; cited from earlier work
T5 construct: purchased BPS Biosciences
T5 sequence (Q9UBN7 1-1215): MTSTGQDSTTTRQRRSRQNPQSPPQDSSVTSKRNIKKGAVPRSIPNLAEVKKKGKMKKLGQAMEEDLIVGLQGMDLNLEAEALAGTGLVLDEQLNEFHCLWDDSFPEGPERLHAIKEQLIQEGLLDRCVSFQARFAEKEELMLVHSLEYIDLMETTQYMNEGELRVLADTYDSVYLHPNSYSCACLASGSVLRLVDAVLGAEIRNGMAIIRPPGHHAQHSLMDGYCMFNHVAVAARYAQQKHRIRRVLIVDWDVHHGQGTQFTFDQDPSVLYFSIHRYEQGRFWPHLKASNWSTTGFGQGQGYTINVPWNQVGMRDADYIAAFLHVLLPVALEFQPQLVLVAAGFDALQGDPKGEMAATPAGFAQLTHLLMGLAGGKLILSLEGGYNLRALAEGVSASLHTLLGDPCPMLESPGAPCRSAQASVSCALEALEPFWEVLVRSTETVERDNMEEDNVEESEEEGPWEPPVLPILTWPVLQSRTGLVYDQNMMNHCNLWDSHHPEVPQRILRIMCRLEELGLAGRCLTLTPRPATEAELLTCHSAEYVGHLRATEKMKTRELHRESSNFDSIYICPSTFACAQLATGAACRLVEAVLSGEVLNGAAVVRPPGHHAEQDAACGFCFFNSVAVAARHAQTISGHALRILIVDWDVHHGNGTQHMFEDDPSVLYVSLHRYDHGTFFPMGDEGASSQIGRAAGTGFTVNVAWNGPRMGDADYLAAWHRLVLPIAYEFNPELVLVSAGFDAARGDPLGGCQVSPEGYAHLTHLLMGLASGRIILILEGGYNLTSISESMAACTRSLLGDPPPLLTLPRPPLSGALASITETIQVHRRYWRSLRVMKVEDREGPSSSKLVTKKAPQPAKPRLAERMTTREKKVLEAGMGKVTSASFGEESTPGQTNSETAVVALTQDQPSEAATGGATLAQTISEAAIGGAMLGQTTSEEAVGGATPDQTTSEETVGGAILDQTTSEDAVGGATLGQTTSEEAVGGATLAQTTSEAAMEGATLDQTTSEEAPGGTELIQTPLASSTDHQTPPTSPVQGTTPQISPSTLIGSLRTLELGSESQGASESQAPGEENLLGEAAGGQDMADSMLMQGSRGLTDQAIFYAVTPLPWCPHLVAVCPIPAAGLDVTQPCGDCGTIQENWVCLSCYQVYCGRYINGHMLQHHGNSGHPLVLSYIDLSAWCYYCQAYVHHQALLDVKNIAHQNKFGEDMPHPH

A549 cells = experiment: in vitro growth inhibition (MTT), A549 cells; type: cell-based; conditions: Homo sapiens, 72 h, at least seven-dose, duplicate
Description: (§1) Eca-109, Bel 7402 and U937 cell lines were purchased from ATCC (Manassas, VA, USA), and the other tested cell lines were obtained from the Shanghai Institute for Biological Sciences, Chinese Academy of Sciences (Shanghai, China). MDA-MB-231, Hela, Eca-109 and Bel 7402 cells were cultured in DMEM medium supplemented with 10% heat-inactivated fetal bovine serum, 100 U/mL penicillin and 100 μg/mL streptomycin (Beyotime Biotech, Shanghai, China). A549 cells were cultured in F-12K medium supplemented with 10% heat-inactivated fetal bovine serum, 100 U/mL penicillin and 100 μg/mL streptomycin. HCT116 and SK-OV-3 cells were cultured in McCoy’s 5A medium supplemented with 10% heat-inactivated fetal bovine serum, 100 U/mL penicillin and 100 μg/mL streptomycin. U937 cells were cultured in RPMI-1640 medium supplemented with 10% heat inactivated fetal bovine serum, 100 U/mL penicillin and 100 μg/mL streptomycin. All cells were cultured at 37 °C in humidified air containing 5% CO2. According to our previous method, A549, HCT116, MDA-MB-231, SK-OV-3, Hela, Eca-109, Bel 7403 and U937 (600,000 cells/well) were seeded in 96-well plates and incubated for 24 h before being treated with various concentration of compounds or solvent control. Cells were further incubated for 72 h and then treated with MTT and incubated for another 3 h. The media was then removed and 100 μL DMSO was added to each well. The absorbance at 550 nm was measured by a SpectraMAX340 microplate reader (Molecular Devices, San Jose, CA, USA) with a reference wavelength at 690 nm. Adriamycin was used as a positive control in the assay.

HCT116 cells = experiment: in vitro growth inhibition (MTT), HCT116 cells; type: cell-based; conditions: Homo sapiens, HCT-116, 72 h, at least seven-dose, duplicate
Description: as §1

MDA-MB-231 cells = experiment: in vitro growth inhibition (MTT), MDA-MB-231 cells; type: cell-based; conditions: Homo sapiens, 72 h, at least seven-dose, duplicate
Description: as §1

SK-OV-3 cells = experiment: in vitro growth inhibition (MTT), SK-OV-3 cells; type: cell-based; conditions: Homo sapiens, 72 h, at least seven-dose, duplicate
Description: as §1

Hela cells = experiment: in vitro growth inhibition (MTT), Hela cells; type: cell-based; conditions: Homo sapiens, 72 h, at least seven-dose, duplicate
Description: as §1, with “Cells were further incubated for 72 h and then treated with MTT and incubated for another 3 h. The media was then removed and 100 μL DMSO was added to each well.” left out, “Adriamycin was used as a positive control in the assay.” left out

Eca-109 cells = experiment: in vitro growth inhibition (MTT), Eca-109 cells; type: cell-based; conditions: Homo sapiens, 72 h, at least seven-dose, duplicate
Description: as §1, with “Cells were further incubated for 72 h and then treated with MTT and incubated for another 3 h. The media was then removed and 100 μL DMSO was added to each well.” left out, “Adriamycin was used as a positive control in the assay.” left out

Bel 7402 cells = experiment: in vitro growth inhibition (MTT), Bel 7402 cells; type: cell-based; conditions: Homo sapiens, 72 h, at least seven-dose, duplicate
Description: as §1, with “Cells were further incubated for 72 h and then treated with MTT and incubated for another 3 h. The media was then removed and 100 μL DMSO was added to each well.” left out, “Adriamycin was used as a positive control in the assay.” left out

U937 cells = experiment: in vitro growth inhibition (MTT), U937 cells; type: cell-based; conditions: Homo sapiens, U-937, 72 h, at least seven-dose, duplicate
Description: as §1, with “Cells were further incubated for 72 h and then treated with MTT and incubated for another 3 h. The media was then removed and 100 μL DMSO was added to each well.” left out, “Adriamycin was used as a positive control in the assay.” left out

recombinant human HDAC1 [6] = target: T1, recombinant human HDAC1; experiment: recombinant human HDAC1 enzymatic assay; type: biochemical; conditions: 10-dose IC50 mode in duplicate, three-fold serial dilution
Description: (§2) The assays were carried out by Shanghai ChemPartner Co., Ltd (Shanghai, China), according to our previous method. Briefly, different concentrations of compounds were incubated with recombinant human HDAC1, HDAC2, HDAC3, HDAC6 and HDAC8 (BPS Biosciences, San Diego, CA, USA) at room temperature for 15 min, which was followed by adding Ac-peptide-AMC substrates to initiate the reaction in Tris-based assay buffer. Reaction mixtures were incubated at room temperature for 60 min in HDAC1, HDAC2, HDAC3 and HDAC6 assays, and were incubated for 240 min in HDAC8 assay. Then, the stop solution containing trypsin was added. The coupled reaction was incubated for another 90 min at 37 °C. Fluorescent AMC released from substrate was measured in SynergyMx (BioTek, Winooski, VT, US) using filter sets as excitation = 355 nm and emission = 460 nm. IC50 values were calculated by GraphPad Prism software (7.0 version., GraphPad Software, San Diego, CA, USA).

recombinant human HDAC2 [7] = target: T2, recombinant human HDAC2; experiment: recombinant human HDAC2 enzymatic assay; type: biochemical; conditions: 10-dose IC50 mode in duplicate, three-fold serial dilution
Description: The assays were carried out by Shanghai ChemPartner Co., Ltd (Shanghai, China), according to our previous method [23, 24]. Briefly, different concentrations of compounds were incubated with recombinant human HDAC1, HDAC2, HDAC3, HDAC6 and HDAC8 (BPS Biosciences, San Diego, CA, USA) at room temperature for 15 min, which was followed by adding Ac-peptide-AMC substrates to initiate the reaction in Tris-based assay buffer. Reaction mixtures were incubated at room temperature for 60 min in HDAC1, HDAC2, HDAC3 and HDAC6 assays, and were incubated for 240 min in HDAC8 assay. Then, the stop solution containing trypsin was added. The coupled reaction was incubated for another 90 min at 37 °C. Fluorescent AMC released from substrate was measured in SynergyMx (BioTek, Winooski, VT, US) using filter sets as excitation = 355 nm and emission = 460 nm. IC50 values were calculated by GraphPad Prism software (7.0 version., GraphPad Software, San Diego, CA, USA).

recombinant human HDAC3 [8] = target: T3, recombinant human HDAC3; experiment: recombinant human HDAC3 enzymatic assay; type: biochemical; conditions: 10-dose IC50 mode in duplicate, three-fold serial dilution
Description: as §2

recombinant human HDAC8 [9] = target: T4, recombinant human HDAC8; experiment: recombinant human HDAC8 enzymatic assay; type: biochemical; conditions: 10-dose IC50 mode in duplicate, three-fold serial dilution
Description: as §2

recombinant human HDAC6 [10] = target: T5, recombinant human HDAC6; experiment: recombinant human HDAC6 enzymatic assay; type: biochemical; conditions: 10-dose IC50 mode in duplicate, three-fold serial dilution
Description: as §2

[11] = test system: A549, HCT116 and SK-OV-3 cells; experiment: in vitro growth inhibition (MTT), range over three cell lines; type: cell-based; conditions: towards A549, HCT116 and SK-OV-3 cells
Description: as §1, with “Cells were further incubated for 72 h and then treated with MTT and incubated for another 3 h. The media was then removed and 100 μL DMSO was added to each well.” left out, “Adriamycin was used as a positive control in the assay.” left out

Structure (SMILES) | IC50 (recombinant human HDAC1 [1]) [nM] | Selectivity (HDAC1/6) (recombinant human HDAC1 [1]) | IC50 (recombinant human HDAC2 [2]) [nM] | IC50 (recombinant human HDAC3 [3]) [nM] | IC50 (recombinant human HDAC8 [4]) [nM] | IC50 (recombinant human HDAC6 [5]) [nM] | IC50 (A549 cells) [nM] | IC50 (HCT116 cells) [nM] | IC50 (MDA-MB-231 cells) [nM] | IC50 (SK-OV-3 cells) [nM] | IC50 (Hela cells) [nM] | IC50 (Eca-109 cells) [nM] | IC50 (Bel 7402 cells) [nM] | IC50 (U937 cells) [nM] | also measured
CC(C)C1NC(=O)C2(C)CSC(=N2)c2csc(n2)CNC(=O)CC(C(F)=CCCS)OC1=O (centres unmarked) [Compound 15a] | 4.39 ± 0.17 | 68 | 21 ± 0.3 | 39.2 ± 2.3 | 8.38 ± 2.46 | 300 ± 5 |  |  |  |  |  |  |  |  | 
CC12CSC(=N1)c1csc(n1)CNC(=O)CC(C(F)=CCCS)OC(=O)C(Cc1ccccc1)NC2=O (centres unmarked) [Compound 15b] | 4.24 ± 0.38 | 80 | 16.3 ± 0.4 | 37.1 ± 0.8 | 17.5 ± 4.2 | 338 ± 17 |  |  |  |  |  |  |  |  | 
CCCCCCCC(=O)SCC/C=C/[C@@H]1CC(=O)NCc2nc(cs2)C2=N[C@@](C)(CS2)C(=O)N[C@@H](C(C)C)C(=O)O1 [largazole] |  |  |  |  |  |  | 520 ± 170 | 110 ± 10 | 4750 ± 1950 | 250 ± 170 | 170 ± 10 | 100 | 170 ± 20 | 20 | 
CSCC1NC(=O)C2(C)CSC(=N2)c2csc(n2)CNC(=O)CC(C(F)=CCCS)OC1=O [Compound 15c, (1^2Z,2^2Z,2^4R,8S)-8-((Z)-1-fluoro-4-mercaptobut-1-en-1-yl)-2^4-methyl-5-((methylthio)methyl)-2^4,2^5-dihydro-7-oxa-4,11-diaza-1(4,2),2(2,4)-dithiazolacyclododecaphane-3,6,10-trione] |  |  |  |  |  |  |  |  |  |  |  |  |  |  | IC50 (recombinant human HDAC1 [6]): 0.27 ± 0.02 nM; IC50 (recombinant human HDAC2 [7]): 1.33 ± 0.02 nM; IC50 (recombinant human HDAC3 [8]): 2.33 ± 0.15 nM; IC50 (recombinant human HDAC8 [9]): 0.44 ± 0.16 nM; IC50 (recombinant human HDAC6 [10]): 23.9 nM
CCCCCCCC(=O)SCC/C=C(\F)[C@@H]1CC(=O)NCc2nc(cs2)C2=N[C@@](C)(CS2)C(=O)NCC(=O)O1 [Compound 16d, S-((Z)-4-fluoro-4-((1^2Z,2^2Z,2^4R,8S)-2^4-methyl-3,6,10-trioxo-2^4,2^5-dihydro-7-oxa-4,11-diaza-1(4,2),2(2,4)-dithiazolacyclododecaphane-8-yl)but-3-en-1-yl) octanethioate] |  |  |  |  |  |  | > 10000 | 6620 ± 1860 | > 10000 | > 10000 |  |  |  |  | 
CCCCCCCC(=O)SCC/C=C(\F)[C@@H]1CC(=O)NCc2nc(cs2)C2=N[C@@](C)(CS2)C(=O)N[C@@H](CSC)C(=O)O1 [Compound 16c, S-((Z)-4-fluoro-4-((1^2Z,2^2Z,2^4R,5R,8S)-2^4-methyl-5-((methylthio)methyl)-3,6,10-trioxo-2^4,2^5-dihydro-7-oxa-4,11-diaza-1(4,2),2(2,4)-dithiazolacyclododecaphane-8-yl)but-3-en-1-yl) octanethioate] |  |  |  |  |  |  | 2920 ± 530 | 1410 ± 540 | > 10000 | 3130 ± 500 | 100 ± 10 | 90 ± 20 | 250 ± 70 | 80 ± 20 | IC50 [11]: 1410 to 3130 nM
